Measurements as given in US12110276B2 (Genentech, Inc., priority 2021, dated 2024).
pIC50: −log10 of the molar value.

Assays:
TEAD4 = TEAD4 (Homo sapiens (Human), UniProt Q15561); experiment: TR-FRET lipid pocket probe competition assay (Lipid HTRF), TEAD4; assay type: binding; settings: 4 hours pre-incubation; read-out: Lipid HTRF TEAD4 IC50;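 note: His-tagged TEAD4 with biotinylated lipid-pocket probe, read by Europium anti-His and XL665 streptavidin, where probe displacement lowers the TR-FRET signal, IC50 from a four-parameter fit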
Chain of TEAD4 (Q15561 whole entry, species assumed): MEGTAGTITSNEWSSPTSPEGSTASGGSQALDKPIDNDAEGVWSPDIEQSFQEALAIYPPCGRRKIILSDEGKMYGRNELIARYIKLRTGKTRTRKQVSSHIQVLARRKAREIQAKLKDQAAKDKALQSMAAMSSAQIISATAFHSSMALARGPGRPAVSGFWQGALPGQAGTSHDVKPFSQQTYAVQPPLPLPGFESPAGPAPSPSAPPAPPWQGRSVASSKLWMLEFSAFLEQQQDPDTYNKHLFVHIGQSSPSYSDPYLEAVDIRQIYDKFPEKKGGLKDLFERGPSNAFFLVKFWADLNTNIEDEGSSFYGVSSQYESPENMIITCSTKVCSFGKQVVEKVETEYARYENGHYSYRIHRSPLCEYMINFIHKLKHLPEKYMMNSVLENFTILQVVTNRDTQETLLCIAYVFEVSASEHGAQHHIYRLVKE
Procedure: His-tagged TEAD proteins are pre-incubated with TEAD project compounds for 30 minutes or 4 hours at room temperature. Biotinylated lipid pocket probes are then added to the TEAD/Compound mixture and incubated for 60 minutes at room temperature. The lipid pocket probe competes with the test compound for the TEAD lipid pocket until equilibrium is reached. After 60 minutes, Europium labelled anti-His (Perkin Elmer #AD0110) and XL665 labelled streptavidin (CIS Bio 610SAXAC) are added to the TEAD/test compound/lipid pocket mixture and incubated for 30 minutes or 4 hours. […] If a TEAD lipid pocket binder such as binds and displaces the lipid pocket probe, the disruption of the TEAD:probe interaction results in a decrease in TR-FRET signal. The potency of compounds as TEAD lipid pocket binders is determined by IC50 value generated using a non-linear 4 parameter curve fit.

TEAD1 = TEAD1 (Homo sapiens (Human), UniProt P28347); experiment: TR-FRET lipid pocket probe competition assay (Lipid HTRF), TEAD1; assay type: binding; settings: 4 hours pre-incubation; read-out: Lipid HTRF TEAD1 IC50;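 note: His-tagged TEAD1 with biotinylated probe, detected via Europium anti-His and XL665 streptavidin, probe displacement lowers TR-FRET signal, IC50 from four-parameter nonlinear fit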
Chain of TEAD1 (P28347 whole entry, species assumed): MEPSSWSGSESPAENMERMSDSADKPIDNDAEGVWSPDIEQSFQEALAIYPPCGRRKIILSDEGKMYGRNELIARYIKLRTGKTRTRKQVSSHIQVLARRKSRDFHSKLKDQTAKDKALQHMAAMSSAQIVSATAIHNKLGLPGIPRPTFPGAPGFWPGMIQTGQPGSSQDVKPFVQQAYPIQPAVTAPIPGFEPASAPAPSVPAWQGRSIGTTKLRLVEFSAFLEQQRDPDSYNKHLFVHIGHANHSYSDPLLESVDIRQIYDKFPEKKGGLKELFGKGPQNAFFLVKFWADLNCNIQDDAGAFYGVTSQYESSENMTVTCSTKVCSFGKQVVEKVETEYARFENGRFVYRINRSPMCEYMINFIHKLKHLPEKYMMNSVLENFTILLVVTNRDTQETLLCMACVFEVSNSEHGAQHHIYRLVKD

TEAD3 = TEAD3 (Homo sapiens (Human), UniProt Q99594); experiment: TR-FRET lipid pocket probe competition assay (Lipid HTRF), TEAD3; assay type: binding; settings: 4 hours pre-incubation; read-out: Lipid HTRF TEAD3 IC50
Chain of TEAD3 (Q99594 whole entry, species assumed): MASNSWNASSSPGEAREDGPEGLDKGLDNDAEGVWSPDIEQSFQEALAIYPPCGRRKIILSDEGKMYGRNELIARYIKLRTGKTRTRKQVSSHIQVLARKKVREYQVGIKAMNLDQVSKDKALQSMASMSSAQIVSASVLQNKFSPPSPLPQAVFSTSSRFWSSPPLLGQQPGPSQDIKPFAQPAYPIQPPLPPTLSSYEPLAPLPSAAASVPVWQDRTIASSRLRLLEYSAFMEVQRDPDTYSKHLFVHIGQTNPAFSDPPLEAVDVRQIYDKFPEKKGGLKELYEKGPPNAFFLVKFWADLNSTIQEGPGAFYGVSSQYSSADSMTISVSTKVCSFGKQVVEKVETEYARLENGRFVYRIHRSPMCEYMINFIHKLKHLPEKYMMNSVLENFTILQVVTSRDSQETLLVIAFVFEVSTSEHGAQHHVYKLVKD

TEAD2 = TEAD2 (Homo sapiens (Human), UniProt Q15562);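 note: TR-FRET competition assay with His-tagged TEAD protein and a biotinylated lipid pocket probe, compound pre-incubated 30 min or 4 h at room temperature, displacement lowers signal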
Chain of TEAD2 (Q15562 whole entry, species assumed): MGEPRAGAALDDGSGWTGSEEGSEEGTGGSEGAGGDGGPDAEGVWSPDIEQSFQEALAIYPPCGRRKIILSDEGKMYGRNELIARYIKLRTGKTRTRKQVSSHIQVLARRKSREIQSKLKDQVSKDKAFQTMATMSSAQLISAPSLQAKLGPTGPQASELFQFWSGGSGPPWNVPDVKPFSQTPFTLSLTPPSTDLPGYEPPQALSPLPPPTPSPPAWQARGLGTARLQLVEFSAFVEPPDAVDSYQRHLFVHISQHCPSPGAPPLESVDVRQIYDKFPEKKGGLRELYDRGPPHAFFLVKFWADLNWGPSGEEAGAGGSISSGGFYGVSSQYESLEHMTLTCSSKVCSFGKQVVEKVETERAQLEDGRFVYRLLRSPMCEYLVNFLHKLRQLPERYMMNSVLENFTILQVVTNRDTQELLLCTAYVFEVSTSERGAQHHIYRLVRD
Procedure: His-tagged TEAD proteins are pre-incubated with TEAD project compounds for 30 minutes or 4 hours at room temperature. Biotinylated lipid pocket probes are then added to the TEAD/Compound mixture and incubated for 60 minutes at room temperature. The lipid pocket probe competes with the test compound for the TEAD lipid pocket until equilibrium is reached. After 60 minutes, Europium labelled anti-His (Perkin Elmer #AD0110) and XL665 labelled streptavidin (CIS Bio 610SAXAC) are added to the TEAD/test compound/lipid pocket mixture and incubated for 30 minutes or 4 hours. TR-FRET values are then measured using an EnVision multi-label plate reader (Perkin Elmer Cat #2104-0010A.) If the lipid pocket probe binds to TEAD as expected, a TR-FRET signal results from the proximity of anti-His Eu and XL665. If a TEAD lipid pocket binder such as binds and displaces the lipid pocket probe, the disruption of the TEAD:probe interaction results in a decrease in TR-FRET signal. The potency of compounds as TEAD lipid pocket binders is determined by IC50 value generated using a non-linear 4 parameter curve fit.

SMILES | pIC50 (TEAD4) | pIC50 (TEAD1) | pIC50 (TEAD3) | pIC50 (TEAD2)
C[C@@H](O)/C=C/C(=O)N1CC(c2nn(-c3ccc(OC(F)(F)F)cc3)c3nccc(CO)c23)C1 [Compound 66, (R,E)-4-Hydroxy-1-(3-(4-(hydroxymethyl)-1-(4-(trifluoromethoxy)phenyl)-1H-pyrazolo[3,4-b]pyridin-3-yl)azetidin-1-yl)pent-2-en-1-one] | 7.48 | 7.36 | 6.47 | 6.74
C=CC(=O)NCc1nn(-c2ccc(OC(F)(F)F)cc2)c2nccc([C@H](C)O)c12 [Compound 63, (S)-N-((4-(1-hydroxyethyl)-1-(4-(trifluoromethoxy)phenyl)-1H-pyrazolo[3,4-b]pyridin-3-yl)methyl)acrylamide] | 7.11 | 6.87 | 4.98 | 6.91
C=CC(=O)NCc1nn(-c2ccc(OC(F)(F)F)cc2)c2nccc(N3CC(N)C3)c12 [Compound 92, N-((4-(3-aminoazetidin-1-yl)-1-(4-(trifluoromethoxy)phenyl)-1H-pyrazolo[3,4-b]pyridin-3-yl)methyl)acrylamide] | 7.28 | 6.96 | 4.89 | 6.11
C=CC(=O)NCc1nn(-c2ccc(OC(F)(F)F)cc2)c2cccc(C#N)c12 [Compound 186, N-((4-cyano-1-(4-(trifluoromethoxy)phenyl)-1H-indazol-3-yl)methyl)acrylamide] | 7.28 | 6.57 | 6.59 | 6.37
C=C(F)C(=O)N1CC(c2nn(-c3ccc(OC(F)(F)F)cc3)c3nccc(-c4c[nH]cn4)c23)C1 [Compound 130, 1-(3-(4-(1H-Imidazol-4-yl)-1-(4-(trifluoromethoxy)phenyl)-1H-pyrazolo[3,4-b]pyridin-3-yl)azetidin-1-yl)-2-fluoroprop-2-en-1-one] | 6.27 | 6.42 | 5.27 | 6.00
C=C(F)C(=O)N1CC(c2nn(-c3ccc(OC(F)(F)F)cc3)c3nccc(-c4cnn(CCOC)c4)c23)C1 [Compound 176, 2-fluoro-1-(3-(4-(1-(2-methoxyethyl)-1H-pyrazol-4-yl)-1-(4-(trifluoromethoxy)phenyl)-1H-pyrazolo[3,4-b]pyridin-3-yl)azetidin-1-yl)prop-2-en-1-one] | 7.11 | 7.34 | 4.30 | 6.10
C=C(F)C(=O)N1CC(c2nn(-c3ccc(OC(F)(F)F)cc3Cl)c3nccc(CO)c23)C1 [Compound 183, 1-(3-(1-(2-chloro-4-(trifluoromethoxy)phenyl)-4-(hydroxymethyl)-1H-pyrazolo[3,4-b]pyridin-3-yl)azetidin-1-yl)-2-fluoroprop-2-en-1-one] | 6.96 | 6.74 | 5.96 | 5.74
C=CC(=O)NCc1nn(-c2ccc(OC(F)(F)F)cc2)c2nccc([C@H]3COC(=O)O3)c12 [Compound 144, (S)-N-((4-(2-Oxo-1,3-dioxolan-4-yl)-1-(4-(trifluoromethoxy)phenyl)-1H-pyrazolo[3,4-b]pyridin-3-yl)methyl)acrylamide] | 7.26 | 6.25 | 4.30 | 6.82

Now those with a higher pIC50 (TEAD4), led by results:

pIC50 (TEAD4) | pIC50 (TEAD1) | pIC50 (TEAD3) | pIC50 (TEAD2) | SMILES
7.54 | 7.22 | 6.09 | 6.48 | C=CC(=O)NCc1nn(-c2ccc(OC(F)(F)F)cc2)c2nccc(-c3cnn(C4COC4)c3)c12 [Compound 171, N-[[4-[1-(oxetan-3-yl)pyrazol-4-yl]-1-[4-(trifluoromethoxy)phenyl]pyrazolo[3,4-b]pyridin-3-yl]methyl]prop-2-enamide]
9.06 | 8.46 | 8.32 | 8.64 | C#Cc1ccnc2c1c(C1CN(C(=O)C=C)C1)nn2-c1ccc(OC(F)(F)F)cc1 [Compound 48, 1-(3-(4-Ethynyl-1-(4-(trifluoromethoxy)phenyl)-1H-pyrazolo[3,4-b]pyridin-3-yl)azetidin-1-yl)prop-2-en-1-one]
8.07 | 7.35 | 6.62 | 8.24 | C=C(C)S(=O)(=O)N1CC(c2nn(-c3ccc(OC(F)(F)F)cc3)c3nccc([C@H](O)CO)c23)C1 [Compound 159, (S)-1-(3-(1-(Prop-1-en-2-ylsulfonyl)azetidin-3-yl)-1-(4-(trifluoromethoxy)phenyl)-1H-pyrazolo[3,4-b]pyridin-4-yl)ethane-1,2-diol]
8.47 | 8.17 | 7.00 | 7.18 | C=CC(=O)N(C)Cc1nn(-c2ccc(OC(F)(F)F)cc2)c2ccccc12 [Compound 18, N-methyl-N-((1-(4-(trifluoromethoxy)phenyl)-1H-indazol-3-yl)methyl)acrylamide]
7.89 | 7.24 | 6.07 | 7.15 | C=CC(=O)NCc1nn(-c2ccc(OC(F)(F)F)cc2)c2nccc([C@@H](C)O)c12 [Compound 62, (R)-N-((4-(1-Hydroxyethyl)-1-(4-(trifluoromethoxy)phenyl)-1H-pyrazolo[3,4-b]pyridin-3-yl)methyl)acrylamide]
8.29 | 7.64 | 7.74 | 8.11 | C=C(Cl)C(=O)N1CC(c2nn(-c3ccc(OC(F)(F)F)cc3)c3nccc([C@H](O)CO)c23)C1 [Compound 109, (S)-2-Chloro-1-(3-(4-(1,2-dihydroxyethyl)-1-(4-(trifluoromethoxy)phenyl)-1H-pyrazolo[3,4-b]pyridin-3-yl)azetidin-1-yl)prop-2-en-1-one]
8.37 | 7.80 | 4.30 | 7.01 | C=CC(=O)NCc1nn(-c2ccc(OC(F)(F)F)cc2)c2nccc(N3CC(OC)C3)c12 [Compound 118, N-((4-(3-methoxyazetidin-1-yl)-1-(4-(trifluoromethoxy)phenyl)-1H-pyrazolo[3,4-b]pyridin-3-yl)methyl)acrylamide]
7.66 | 7.85 | 6.44 | 7.37 | C=CC(=O)NCc1nn(-c2ccc(OC(F)(F)F)cc2)c2nccc(-c3cn[nH]c3)c12 [Compound 134, N-((4-(1H-Pyrazol-4-yl)-1-(4-(trifluoromethoxy)phenyl)-1H-pyrazolo[3,4-b]pyridin-3-yl)methyl)acrylamide]
7.85 | 7.77 | 6.55 | 7.05 | O=C(NCc1nn(-c2ccc(OC(F)(F)F)cc2)c2nccc(CO)c12)C1=CCC1 [Compound 148, N-((4-(Hydroxymethyl)-1-(4-(trifluoromethoxy)phenyl)-1H-pyrazolo[3,4-b]pyridin-3-yl)methyl)cyclobut-1-enecarboxamide]
7.51 | 6.82 | 4.57 | 7.00 | C=CC(=O)NCc1nn(-c2ccc(OC(F)(F)F)cc2)c2nccc(N3CCC[C@@H](O)C3)c12 (stereo in doubt) [Compound 65, N-((4-(3-hydroxypiperidin-1-yl)-1-(4-(trifluoromethoxy)phenyl)-1H-pyrazolo[3,4-b]pyridin-3-yl)methyl)acrylamide]
8.48 | 8.10 | 7.89 | 7.77 | O=C(/C=C/CO)N1CC(c2nn(-c3ccc(OC(F)(F)F)cc3)c3nccc(Cl)c23)C1 [Compound 127, (E)-1-(3-(4-Chloro-1-(4-(trifluoromethoxy)phenyl)-1H-pyrazolo[3,4-b]pyridin-3-yl)azetidin-1-yl)-4-hydroxybut-2-en-1-one]
